According to patent US20080299131A1, “Anti-Viral Compositions” (priority 2004, published 2008):
“Also recorded” adds a separate entry of the source.

Columns and labels:
[1] = test system: VACV (most likely IMV form); settings: DS per se at 80 μg/ml; cited from earlier work
[2] = test system: VACV harvested from supernatant of infected cells (predominantly EEV); assay type: cell-based, Vaccinia virus strain WR
VACV strain WR [3] = assay type: in vivo, mice; settings: 3×10^3 pfu, polyanion intranasally on one and three days post-infection
EEV [4] = assay type: cell-based, Vaccinia virus strain WR
[5] = Tolerability of polyanions administered to mice; settings: for weight loss or illness after intranasal administration: up to 2 mg/mouse intranasally; for adverse effects after intraperitoneal injection: unpublished data
[6] = test system: VACV strain WR-induced actin tails; assay type: cell-based, Vaccinia virus strain WR
VACV strain WR [7] = assay type: in vivo, mice; settings: 2 mg polyanion intranasally 2 days post-infection; for benefit with polyanion in mice that received human IgG: Hu anti-VV Ab 500 μg; for weight loss after infection, polyanion alone: non-immune IgG, 1×10^4 pfu
VACV strain WR [8] = assay type: cell-based, Vaccinia virus strain WR
VACV strain WR [9] = test system: VACV strain WR; set-up: species or system mice; settings: mouse, in vivo
EEV membrane = test system: EEV membrane; set-up: species or system Vaccinia virus strain WR
EEV [10] = assay type: cell-based, Vaccinia virus
CEV outer membrane = assay type: cell-based, Vaccinia virus strain WR

Substance | infectivity of virus in the supernatant of VACV-infected cells [2] | neutralizing activity of both antisera [2] | benefit in vivo at lower virus challenge (VACV strain WR [3]) | virus infectivity in the supernatant (EEV [4]) | weight loss or illness after intranasal administration [5] | actin tails formed in cells that made actin tails [6] | cells found to make actin tails [6] [%] | protection with polyanion in mice passively immunised with rabbit anti-IMV IgG (VACV strain WR [7]) | benefit with polyanion in mice that received human IgG (VACV strain WR [7]) | weight loss after infection, polyanion alone (VACV strain WR [7]) | relative effectiveness at rendering EEV sensitive to anti-IMV antibody (EEV [4]) | adverse effects after intraperitoneal injection [5] | other results
dextran sulphate [DS] | did not reduce the infectivity | 56-63% | confirmed | abolished virus infectivity | did not cause weight loss or illness | significantly fewer actin tails were formed | 15 | potentiated the therapeutic effect of this Ab | less effective | slightly less weight loss |  |  | inhibition of VACV [1]: only partially inhibit VACV
heparin [HP] | did not reduce the infectivity | 55-61% | confirmed | abolished virus infectivity | did not cause weight loss or illness | significantly fewer actin tails were formed | 15 | provided protection to a level equivalent to rabbit IgG generated against live infection | provided similar benefit | slightly less weight loss | more effective at the dose tested than desulphated HP | did not affect the mice adversely | titre of virus released into the culture medium (VACV strain WR [8]): no significant difference; titre of virus that remained cell-associated (VACV strain WR [8]): no significant difference; reduction of level of virus in lungs (VACV strain WR [9]): about 10 fold; reduction of levels of virus in the brain (VACV strain WR [9]): > 100 fold; virus titres, HP in absence of anti-VACV Ab (VACV strain WR [9]): titres were lower than in the absence of HP; surface of virions associated with EEV membrane (EEV membrane): 46.4%; binding of virus (EEV [10]): neither binding nor entry of virus was affected significantly; entry of virus (intracellular cores) (EEV [10]): neither binding nor entry of virus was affected significantly; actin tails seen by EM (CEV outer membrane): actin tails were rarely seen; outer membrane of CEV bound to the cell surface (CEV outer membrane): disrupted the outer membrane of CEV
dextran sulphate [DS-HMW] |  |  |  |  |  |  |  |  |  |  | more potent than HP and DS; also recorded: more effective than DS with lower molecular weight | did not affect the mice adversely | body weight reduction ([5]; 2 mg/mouse intranasally, after 2 days): 15%; weight loss or illness after intranasal administration ([5]; listed as high MW DS): increased respiratory effort, followed by breathing difficulty
heparin [HP-HWM] |  |  |  |  |  |  |  |  |  |  | more potent than HP and DS; also recorded: more effective than heparin with lower molecular weight |  | 
